Test results as given in US20250213593A1, “Use of Derivatives based on Sarsasapogenin Structure and Pharmaceutical Compositions thereof” (BEIJING PHYTOVENT PHARMACEUTICAL TECHNOLOGY CO., LTD., priority 2022, published 2025).

Key:
ICR mice = experiment: Sleep of mice at subthreshold hypnotic dosage of sodium pentobarbital; assay type: in vivo, mouse; details: single oral gavage, high-, medium- and low-dosage; vs blank control
Protocol: After adaptive feeding of mice, 50 qualified animals were selected according to their body weights and divided into 5 groups by Excel complete randomization: a blank control group, a positive control group (Diazepam), and high-, medium- and low-dosage groups of test product, with 10 animals in each group. Animals in each group should be administrated with drug solutions and vehicles. After 1 h of administration, the animals in each group were intraperitoneally injected with a maximum subthreshold dosage of sodium pentobarbital (firstly, a pre-experiment was conducted to determine a maximum subthreshold hypnotic dosage of sodium pentobarbital).

[1] = tested on: transgenic AD rat model (human APP mutant protein, SD rats); experiment: T-maze test of AD rats; assay type: in vivo; details: model vs administration group
Protocol: The T-maze test had four stages: I. in an acclimatization stage, food was placed in both arms, and valves on both arms were opened. Each rat was trained twice. All rats entered the next stage after they had eaten the food on both sides within 5 min twice. II. In a forced training stage, a valve on one side was closed first, and the rats were allowed to eat the food on the opposite side. A valve on the opposite side was closed again, and the rats were allowed to eat the food on the other side. This was a training process. Each animal was trained 4 times a day for 3 days. III.
In an optional training stage, the valve on one side was closed in half first, and the rats were allowed to eat the food on the opposite side. All the valves were then closed. If the rats went to the other side, they could finish eating the food there. If the rats went to the same side, there was no food here, and they were closed on this side for 30 s. This was a training process. Each animal was trained 4 times a day until the accuracy rate exceeded 75% for 2 consecutive days and proceeded to the next stage. IV.
In a delayed optional test stage, it was basically the same as the operation of the III stage, except that interval time was added after the forced training stage and before the optional training stage. The interval time was set to 1.5 min, 3 min, and 10 min. Test was performed for 4 times at each time.

male SD rats, TBI model = experiment: Acute traumatic brain injury (TBI) rat model; assay type: in vivo; details: 80 mpk once a day, 7 days; vs solvent control (P<0.05)
Protocol: • Experimental and analytical method: male SD rats were used in this experiment to establish a TBI rat model, which was randomly divided into: a solvent control group (8 rats), a test product Embodiment 13B (80 mpk, 10 rats), and a test product Embodiment 26 (80 mpk, 9 rats). After TBI surgery, drugs were administered by gavage once a day for 7 consecutive days.

[2] = tested on: SARS-CoV-2 pseudovirus (HEK293T cells); assay type: cell-based
[3] = tested on: OCI-LY3 (human diffuse large B-cell lymphoma cells); experiment: Cell proliferation assay, OCI-LY3; assay type: cell-based; details: Homo sapiens, OCI-Ly3, 72 h
Protocol: (§1) • Experimental and analytical method: cells were inoculated into a 96-well cell culture plate with a lid at a maximum concentration of 10 μM for a test compound, and diluted in three folds to a series of test concentrations, and cells were incubated at 37° C., 5% CO2 for 72 h. The concentration of DMSO was 0.5%, 100 μl of medium was taken from each well. 100 μl of reagent (Celltitute Glo Assay Kit) was added to each well, and a flat plate was shaken on a plate shaker (protected from light) for 2 min. A culture plate was incubated (protected from light) at room temperature for 30 min. Chemiluminescence values were recorded by a multi-plate plate reader, and the experimental results were as follows:
(§2) U937 (histiocytic lymphoma cells), OCI-LY3 (human diffuse large B-cell lymphoma cells), U2932 (human diffuse large B-cell lymphoma cells), and HT cells (human mixed lymphoma cells) were analyzed in the table for experimental analysis of cell proliferation.

[4] = tested on: transgenic AD rat model (human APP mutant protein, SD rats); experiment: Water maze test of AD rats; details: administered from 7 to 13 months of age; vs model group
[5] = tested on: U2932 (human diffuse large B-cell lymphoma cells); experiment: Cell proliferation assay, U2932; assay type: cell-based; details: U2932, 72 h
Protocol: as §1, §2

hippocampal neurons = experiment: L-cysteine-induced neuronal excitotoxicity; assay type: cell-based, SD rats; details: compound 1 μM, 24 h before inducer
How it was run: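 Primary E18-19 SD rat hippocampal neurons at DIV19 pretreated 24 h with compound (final 1 μM; AP5 100 μM positive control, DMSO negative), then exposed to L-cystine 400 μM plus NaHCO3 10 mM for 18 h. Hoechst staining; total and dead neurons counted in 6 random fields per well.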

C[C@H]1CC[C@@]2(OC1)O[C@H]1C[C@@H]3[C@H](CC[C@H]4[C@H]3CC[C@@H]3C[C@H](NC(=O)CC(=O)N5CCN(CCN(C)C)CC5)CC[C@@]34C)[C@H]1[C@@H]2C [Embodiment 13b] was tested, and the sleep latency (ICR mice) was “could shorten the sleep latency of the mice, which had a certain dosage-response relationship, but no statistically significant difference”, the sleep time (ICR mice) was “could prolong the sleep time of the mice, but there was no statistically significant difference” and the “working memory in delayed optional T-maze test” value (from here on “working memory”) ([1]; interval 1.5 min, administered from 7 to 15 months of age) was “no significant difference”. The “working memory” value ([1]; interval 3 min) was “no significant difference”, the “working memory” value ([1]; interval 10 min) was “working memory of the administration group also persisted” and the “early brain apoptosis rates” value (male SD rats, TBI model) was “significantly lower”. The total apoptosis rates (male SD rats, TBI model) was “significantly lower”, the “mitochondrial fragmentation after pseudovirus infection” value [2] was “not fragmented” and the IC50 [3] was 4390 nM. For the same compound, the “average distance from the platform” value [4] was “improved behavioral performances”, the “dwell time in the target quadrant” value [4] was “improved behavioral performances” and the “number of platform shuttles” value [4] was “improved behavioral performances”. For the same compound, the IC50 [5] was 720 nM and the “protective effects on L-Cystine (400 μM)-induced neuronal excitotoxicity” value (hippocampal neurons) was “protective effects”.
